Laboratory results published in publication PMC8595653, “Activation of specific bitter taste receptors by olive oil phenolics and secoiridoids” (Scientific Reports, 2021).
Entries after “also recorded” stand apart in the source; their conditions may differ. Each block holds one molecule with its values, some of them ahead of it.

Assays:
25 human TAS2Rs = assay: Single dose scanning of phenolic compounds on the 25 bitter taste receptors (calcium mobilization, HEK293E); type: cell-based; settings: single dose 300 µM, 25 TAS2Rs, N = 2
Description: (§1) All constructs were confirmed by DNA sequencing.
(§2) Data from single dose experiments were collected as duplicates. […] Data represent mean ± SD.
To characterize the bitterness of olive oil phenolic compounds, we performed calcium mobilization experiments. The 25 bitter taste receptors, G protein chimera (Gα16-gus44), and the GCaMP calcium sensor[68] were transiently expressed in HEK293E cells. Twelve olive oil phenolic compounds (Fig. 1) were tested for bitter taster receptor activation (Fig. 3). […] Ligstroside aglycon, and Oleuropein aglycon activated TAS2R1, TAS2R8 and TAS2R14 receptors. To validate the single dose scanning results, we performed concentration–response experiments for all the compounds toward receptors TAS2R1, TAS2R8, and TAS2R14 that produced the most significant responses (Fig. 4).
Figure 3 Phenolic compound bitter taste activity tests on hTAS2Rs. Relative fluorescence signals caused by phenolic compound activation of the receptors and the empty vector as a negative control. The concentration of the compounds used was [300 µM], except for Ligstroside aglycon and Oleuropein aglycon [200 µM], oleuropein that was [3 mM]. The asterisks indicate significant differences tested by one-way ANOVA (***p < 0.0001) (N = 2). Data represent mean ± SD.

TRPA1 receptor/channels = test system: TRPA1 receptor/channels; parameters: method as in PMID 21248124; settings: cited from earlier work
TAS2R13 = target: T1, TAS2R13 (Homo sapiens, UniProt Q9NYV9); assay: Calcium mobilization functional assay, TAS2R13; type: cell-based; settings: 10 mM, versus empty pcDNA vector
T1 construct: first 45 amino acids of rat somatostatin type 3 receptor (SSTR3) export tag (N); expressed in transfected cells; host or cells: HEK293E
Description: as §1, §2

TAS2R5 = target: T2, TAS2R5 (Homo sapiens, UniProt Q9NYW4); assay: Calcium mobilization functional assay, TAS2R5; type: cell-based; settings: 1 mM, versus empty pcDNA vector
T2 construct: first 45 amino acids of rat somatostatin type 3 receptor (SSTR3) export tag (N); expressed in transfected cells; host or cells: HEK293E
Description: as §1, §2

TAS2R3 = target: T3, TAS2R3 (Homo sapiens, UniProt Q9NYW6); assay: Calcium mobilization functional assay, TAS2R3; type: cell-based; settings: 10 mM, versus empty pcDNA vector
T3 construct: first 45 amino acids of rat somatostatin type 3 receptor (SSTR3) export tag (N); expressed in transfected cells; host or cells: HEK293E
Description: as §1, §2

TAS2R7 = target: T4, TAS2R7 (Homo sapiens, UniProt Q9NYW3); assay: Calcium mobilization functional assay, TAS2R7; type: cell-based; settings: 10 mM, versus empty pcDNA vector
T4 construct: first 45 amino acids of rat somatostatin type 3 receptor (SSTR3) export tag (N); expressed in transfected cells; host or cells: HEK293E
Description: as §1, §2

TAS2R10 = target: T5, TAS2R10 (Homo sapiens, UniProt Q9NYW0); assay: Calcium mobilization functional assay, TAS2R10; type: cell-based; settings: 30 µM, versus empty pcDNA vector
T5 construct: first 45 amino acids of rat somatostatin type 3 receptor (SSTR3) export tag (N); expressed in transfected cells; host or cells: HEK293E
Description: as §1, §2

TAS2R16 = target: T6, TAS2R16 (Homo sapiens, UniProt Q9NYV7); assay: Calcium mobilization functional assay, TAS2R16; type: cell-based; settings: 10 mM, versus empty pcDNA vector
T6 construct: first 45 amino acids of rat somatostatin type 3 receptor (SSTR3) export tag (N); expressed in transfected cells; host or cells: HEK293E
Description: as §1, §2

TAS2R9 = target: T7, TAS2R9 (Homo sapiens, UniProt Q9NYW1); assay: Calcium mobilization functional assay, TAS2R9; type: cell-based; settings: 20 mM, versus empty pcDNA vector
T7 construct: first 45 amino acids of rat somatostatin type 3 receptor (SSTR3) export tag (N); expressed in transfected cells; host or cells: HEK293E
Description: as §1, §2

T3 sequence (Q9NYW6 whole entry): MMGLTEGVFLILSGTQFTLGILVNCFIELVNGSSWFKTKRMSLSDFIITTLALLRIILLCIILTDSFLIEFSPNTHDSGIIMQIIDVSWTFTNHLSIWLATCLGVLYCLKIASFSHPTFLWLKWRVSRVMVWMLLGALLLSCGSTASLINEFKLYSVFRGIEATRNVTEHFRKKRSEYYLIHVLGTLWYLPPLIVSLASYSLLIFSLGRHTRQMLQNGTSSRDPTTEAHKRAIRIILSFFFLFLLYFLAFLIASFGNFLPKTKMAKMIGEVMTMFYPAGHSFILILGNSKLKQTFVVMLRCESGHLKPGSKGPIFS
T6 sequence (Q9NYV7 whole entry): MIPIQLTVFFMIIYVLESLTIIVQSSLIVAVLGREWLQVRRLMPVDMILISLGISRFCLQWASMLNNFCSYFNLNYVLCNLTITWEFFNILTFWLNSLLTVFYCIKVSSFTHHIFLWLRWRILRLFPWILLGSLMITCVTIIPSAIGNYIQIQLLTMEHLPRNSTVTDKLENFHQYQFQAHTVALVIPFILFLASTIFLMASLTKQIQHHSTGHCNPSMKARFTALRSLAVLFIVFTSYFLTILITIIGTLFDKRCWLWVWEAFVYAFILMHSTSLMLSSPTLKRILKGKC
T2 sequence (Q9NYW4 whole entry): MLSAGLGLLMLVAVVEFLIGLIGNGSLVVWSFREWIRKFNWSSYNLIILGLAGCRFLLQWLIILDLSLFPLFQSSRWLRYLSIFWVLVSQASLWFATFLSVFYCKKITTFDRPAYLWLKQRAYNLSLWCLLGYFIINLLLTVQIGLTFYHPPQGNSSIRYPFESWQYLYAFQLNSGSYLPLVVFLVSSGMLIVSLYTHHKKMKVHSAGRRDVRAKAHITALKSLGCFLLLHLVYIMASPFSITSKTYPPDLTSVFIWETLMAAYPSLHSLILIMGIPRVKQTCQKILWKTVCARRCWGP
T7 sequence (Q9NYW1 whole entry): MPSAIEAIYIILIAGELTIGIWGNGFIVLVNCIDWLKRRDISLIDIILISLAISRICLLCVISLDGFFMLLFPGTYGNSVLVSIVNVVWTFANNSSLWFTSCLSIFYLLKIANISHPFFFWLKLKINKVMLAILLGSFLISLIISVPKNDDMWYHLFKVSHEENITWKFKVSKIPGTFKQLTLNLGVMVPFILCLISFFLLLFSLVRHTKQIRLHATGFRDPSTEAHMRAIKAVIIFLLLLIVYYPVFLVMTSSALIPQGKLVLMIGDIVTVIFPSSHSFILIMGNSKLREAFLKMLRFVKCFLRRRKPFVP
T1 sequence (Q9NYV9 whole entry): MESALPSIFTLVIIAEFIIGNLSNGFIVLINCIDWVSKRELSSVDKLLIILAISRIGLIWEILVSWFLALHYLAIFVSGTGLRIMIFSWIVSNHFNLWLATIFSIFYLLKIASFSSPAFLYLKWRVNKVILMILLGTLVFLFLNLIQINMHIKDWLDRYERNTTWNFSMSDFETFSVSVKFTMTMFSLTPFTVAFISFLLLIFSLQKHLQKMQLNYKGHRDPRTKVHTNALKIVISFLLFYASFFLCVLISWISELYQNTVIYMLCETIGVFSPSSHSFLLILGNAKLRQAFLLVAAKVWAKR
T5 sequence (Q9NYW0 whole entry): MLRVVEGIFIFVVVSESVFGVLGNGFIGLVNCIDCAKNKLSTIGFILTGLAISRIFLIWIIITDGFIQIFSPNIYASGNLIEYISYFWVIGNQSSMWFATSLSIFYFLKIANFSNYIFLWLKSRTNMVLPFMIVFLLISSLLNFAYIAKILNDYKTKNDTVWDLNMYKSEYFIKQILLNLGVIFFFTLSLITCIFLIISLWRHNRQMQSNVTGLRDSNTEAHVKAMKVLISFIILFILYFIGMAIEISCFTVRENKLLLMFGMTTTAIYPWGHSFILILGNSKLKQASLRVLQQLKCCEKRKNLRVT
T4 sequence (Q9NYW3 whole entry): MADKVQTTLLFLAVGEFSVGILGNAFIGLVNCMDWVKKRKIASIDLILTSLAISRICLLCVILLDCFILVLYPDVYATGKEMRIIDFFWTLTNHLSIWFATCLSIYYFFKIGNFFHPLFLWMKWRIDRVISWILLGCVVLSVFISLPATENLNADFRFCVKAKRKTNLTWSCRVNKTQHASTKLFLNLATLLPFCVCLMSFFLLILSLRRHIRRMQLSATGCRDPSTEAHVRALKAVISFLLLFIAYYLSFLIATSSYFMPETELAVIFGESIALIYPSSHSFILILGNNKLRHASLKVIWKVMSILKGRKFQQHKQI

Compound: C/C=C(/C=O)[C@@H](CC=O)CC(=O)OCCc1ccc(O)cc1 [Oleocanthal, oleocanthal]
activation of any TAS2R (25 human TAS2Rs): did not activate any TAS2Rs | activation of any TAS2R (25 human TAS2Rs; listed as oleocanthal): did not show any activation of bitter receptors; also recorded: failed to activate any TAS2Rs | activation of TRPA1 receptor/channels (TRPA1 receptor/channels): activates

Compound: c1cnc2c(c1)ccc1cccnc12 [1,10-phenanthroline]
activation of TAS2R5 (TAS2R5): activated

Compound: CCN(CC)CCCC(C)Nc1ccnc2cc(Cl)ccc12 (stereo not shown) [chloroquine]
activation of TAS2R3 (TAS2R3): activated | activation of TAS2R7 (TAS2R7): activated

Compound: CC(=O)OC(C)(C)/C=C/C(=O)[C@](C)(O)[C@H]1[C@H](O)C[C@@]2(C)[C@@H]3CC=C4[C@@H](C=C(O)C(=O)C4(C)C)[C@]3(C)C(=O)C[C@]12C [cucurbitacin E]
activation of TAS2R10 (TAS2R10): activated

Continued, values first:

activation of TAS2R13 (TAS2R13): activated
Compound: CC[N+](C)(CC)CCOC(=O)C(O)(c1ccccc1)C1CCCCC1 (stereo not shown) [oxyphenonium]

activation of TAS2R16 (TAS2R16): activated
Compound: OCc1ccccc1O[C@@H]1O[C@H](CO)[C@@H](O)[C@H](O)[C@H]1O [salicin]

activation of TAS2R9 (TAS2R9): activated
Compound: CCN(CC)CCNC(=O)c1ccc(N)cc1 [procainamide]
